Consider 3 compounds from US11208412B2 (DAEGU-GYEONGBUK MEDICAL INNOVATION FOUNDATION, priority 2017, dated 2021).

The target of assay [1] is T1, kinases of the scanMAX Kinase assay panel (Homo sapiens, UniProt Q12866).
T1 construct: purchased DiscoverX Co. (contract measurement) scanMAX Kinase assay panel
T1 sequence (Q12866 21-999): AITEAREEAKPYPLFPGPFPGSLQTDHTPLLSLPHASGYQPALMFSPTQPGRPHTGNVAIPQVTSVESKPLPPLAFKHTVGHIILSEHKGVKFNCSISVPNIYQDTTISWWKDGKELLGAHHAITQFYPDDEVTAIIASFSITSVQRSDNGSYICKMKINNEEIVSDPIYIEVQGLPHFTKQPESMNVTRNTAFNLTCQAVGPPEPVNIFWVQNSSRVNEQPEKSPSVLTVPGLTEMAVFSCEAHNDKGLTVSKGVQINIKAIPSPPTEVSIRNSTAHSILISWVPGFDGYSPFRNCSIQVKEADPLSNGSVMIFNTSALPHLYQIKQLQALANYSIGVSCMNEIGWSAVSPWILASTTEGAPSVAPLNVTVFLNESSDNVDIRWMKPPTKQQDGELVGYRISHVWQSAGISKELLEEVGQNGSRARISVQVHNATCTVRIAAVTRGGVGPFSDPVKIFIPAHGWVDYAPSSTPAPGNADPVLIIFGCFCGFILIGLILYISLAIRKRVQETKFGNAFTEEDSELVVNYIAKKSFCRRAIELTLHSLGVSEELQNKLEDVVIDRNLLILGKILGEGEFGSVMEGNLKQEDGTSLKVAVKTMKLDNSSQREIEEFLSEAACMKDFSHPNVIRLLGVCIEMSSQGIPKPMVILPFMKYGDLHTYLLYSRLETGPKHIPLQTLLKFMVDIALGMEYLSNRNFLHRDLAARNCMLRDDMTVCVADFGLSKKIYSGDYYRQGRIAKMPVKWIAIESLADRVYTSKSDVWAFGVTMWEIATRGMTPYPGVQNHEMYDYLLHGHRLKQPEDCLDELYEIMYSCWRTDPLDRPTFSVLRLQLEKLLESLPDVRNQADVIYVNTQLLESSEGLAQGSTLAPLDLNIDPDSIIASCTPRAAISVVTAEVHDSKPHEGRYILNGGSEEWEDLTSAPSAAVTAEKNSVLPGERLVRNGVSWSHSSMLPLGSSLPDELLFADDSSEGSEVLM
In words: Kinase selectivity, DiscoverX scanMAX Kinase assay panel (% control). Type of assay: binding. The following applies: MERTK; 1 uM. In outline: (§1)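 A 1 uM DMSO solution of compound was applied across the panel kinases, and results were expressed as % control relative to DMSO (100%) and a positive control (0%).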

Assay [2] has as its target T2, kinases of the scanMAX Kinase assay panel (Homo sapiens, UniProt Q8IWQ3).
T2 construct: purchased DiscoverX Co. (contract measurement) scanMAX Kinase assay panel
T2 sequence (Q8IWQ3 1-736): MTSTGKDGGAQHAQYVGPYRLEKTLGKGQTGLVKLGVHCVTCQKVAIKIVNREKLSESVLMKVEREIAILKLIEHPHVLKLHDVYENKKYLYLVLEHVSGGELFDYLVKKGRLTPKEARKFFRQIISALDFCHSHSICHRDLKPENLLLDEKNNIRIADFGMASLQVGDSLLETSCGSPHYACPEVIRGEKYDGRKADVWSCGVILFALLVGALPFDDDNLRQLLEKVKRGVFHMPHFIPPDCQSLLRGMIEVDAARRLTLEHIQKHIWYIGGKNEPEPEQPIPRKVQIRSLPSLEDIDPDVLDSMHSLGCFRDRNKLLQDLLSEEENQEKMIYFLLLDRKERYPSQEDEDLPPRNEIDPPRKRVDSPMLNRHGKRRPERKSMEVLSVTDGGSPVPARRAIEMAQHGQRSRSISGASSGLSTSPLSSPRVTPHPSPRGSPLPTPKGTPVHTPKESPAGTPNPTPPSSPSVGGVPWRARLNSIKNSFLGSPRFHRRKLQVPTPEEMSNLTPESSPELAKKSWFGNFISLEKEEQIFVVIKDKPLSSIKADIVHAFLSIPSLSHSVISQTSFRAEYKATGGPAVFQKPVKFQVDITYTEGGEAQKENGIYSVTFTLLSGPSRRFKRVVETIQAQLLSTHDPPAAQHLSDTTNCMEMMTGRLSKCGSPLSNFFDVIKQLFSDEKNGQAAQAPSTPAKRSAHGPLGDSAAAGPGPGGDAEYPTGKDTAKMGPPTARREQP
The description is as above. Type of assay: binding. The following applies: BRSK2; 1 uM. The gist of the method: as §1

As to `CNc1nc(Nc2ccc(C(=O)N3CCOCC3)cc2OC)nc2[nH]cc(C#N)c12` [Example 1, 2-((2-methoxy-4-(morpholine-4-carbonyl)phenyl)amino)-4-(methylamino)-7H-pyrrolo[2,3-d]pyrimidine-5-carbonitrile], the remaining binding at 1 µM came to 96% in assay [1] and 89% in assay [2].
Consider `CC1(Nc2nc(Nc3cnn([C@H]4CCN(C5COC5)C[C@@H]4F)c3Cl)nc3[nH]cc(C#N)c23)CC1` [Example 52, 2-((5-chloro-1-((3S,4S)-3-fluoro-1-(oxetane-3-yl)piperidine-4-yl)-1H-pyrazole-4-yl)amino)((1-methylcyclopropyl)amino)-7H-pyrrolo[2,3-d]pyrimidine-5-carbonitrile], for which the remaining binding at 1 µM came out at 0% in assay [1] and 70% in assay [2].
For `CCNc1nc(Nc2ccc(C(=O)N3CCC(N4CCOCC4)CC3)cc2OC)nc2[nH]cc(C(F)(F)F)c12` [Example 104, (4-((4-(ethylamino)-5-(trifluoromethyl)-7H-pyrrolo[2,3-d]pyrimidine-2-yl)amino)-3-methoxyphenyl)(4-morpholinopiperidine-1-yl)methanone] the same measures were 93% and 100%.
